# Measurements published in patent US20080213385A1, “Formulations for 7- (T-Butoxy) Iminomethyl Camptothecin” (priority 2005, published 2008).
# Columns and labels:
# [1] = Particle size distribution by laser light scattering; assay type: physicochemical; settings: after milling (unmilled for unmilled drug)
# Protocol: The aqueous nano-milling was performed in a ball mill using yittrium […] zirconia beads (0.5-0.6 mm in 0). For all trials the batch size was approximately 70 g. Prior to milling the beads were conditioned with 1% stabilizer solution for 24 hours at 1,200 rpm (minimal speed, 80 mL solution for 160 mL beads), rinsed with demineralized water until conductivity reading was the same as that of the water, placed in a 150-200° C. oven until dry and cooled to room temperature before use. Milling was performed at 3,200 rpm and milling times as outlined in Table 1 were used. Before and after milling the aqueous suspensions were characterized with respect to particle size distribution, appearance (microscopic pictures and laser light scattering), and dissolution rate and assay/degradation.
# [2] = In vitro dissolution rate testing (USP2 apparatus, paddle); assay type: physicochemical; settings: 50 rpm, 37° C., 0.3% SDS in 1,000 mL water
# Protocol: The dissolution rate testing was done using an USP2 apparatus, paddle, 50 rpm, 37° C., 0.3% SDS in 1,000 mL water, n=3. For dissolution rate testing, the aqueous suspensions were diluted 1:5 with water and filled into vials (0.5 mg drug substance/vial).
structure (smiles),measurement,setting,value
"CC[C@@]1(O)C(=O)OCc2c1cc1n(c2=O)Cc2c-1nc1ccccc1c2/C=N/OC(C)(C)C [Unmilled drug, 7-t-butoxyiminomethylcamptothecin]","PSD (light scattering, after milling) x10",[1],x10 = 2 μm
same,"PSD (light scattering, after milling) x50",[1],x50 = 9 μm
same,"PSD (light scattering, after milling) x90",[1],x90 = 35 μm
same,"Dissolution rate: % released, mean (n = 3), after 15 min","[2]; 0.5 mg drug substance/vial, 15 min",3%
same,"Dissolution rate: % released, mean (n = 3), after 30 min",[2]; 30 min,5%
same,"Dissolution rate: % released, mean (n = 3), after 60 min",[2]; 60 min,15%
same,"Dissolution rate: % released, mean (n = 3), after 120 min",[2]; 120 min,31%
